Legend:
[1] = biological target: T1, hFASN enzyme (full length) (Homo sapiens, UniProt P49327); assay: Fatty Acid Synthase (FASN) inhibition scintillation proximity assay; format: biochemical; conditions: for inhibition at 10 µM: read-out: Human FASN % inhibition @ 10 μM, 10 μM test compound; for IC50: read-out: Human FASN pIC50 (converted)
T1 construct: 10 μL hFASN enzyme (full length, 300 ng, purified in house); made in house
Method in brief: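 Proximity read-out: hydrophobic ^3H-palmitate formed from ^3H-acetyl-CoA and malonyl-CoA binds streptavidin imaging beads, imaged at 610±20 nm at least 24 h after stopping. Enzyme was in-house purified full-length hFASN, 300 ng, in pH 7.5 phosphate/DTT buffer; compound series 30 μM down to 0.01 μM, normalized to controls, 4-parameter fit.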

A2780 ovarian cells [2] = assay: A2780 ovarian cell proliferation assay in lipid reduced medium, with palmitate (MTT); format: cell-based; conditions: Homo sapiens, A2780, 96 h; read-out: pIC50 A2780 Ovarian Cell, With Palmitate (converted)
Method in brief: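 In this palmitate-supplemented format, compound dilutions (30 μM down to 0.01 μM) are added to cells in lipid-reduced serum with 25 μM palmitate, 0.2% fatty-acid-free BSA and 0.25% ethanol. After four days (96 h) MTT absorbance at 544 nm is recorded and fitted by minimum sum of squares.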

A2780 ovarian cells [3] = assay: A2780 ovarian cell proliferation assay in lipid reduced medium, without palmitate (MTT); format: cell-based; conditions: Homo sapiens, A2780, 96 h; read-out: pIC50 A2780 Ovarian Cell, Without Palmitate (converted)
[4] = tested on: LNCaP-Vancouver prostate cells; assay: In vitro LNCaP Vancouver prostate cell proliferation assay in lipid reduced medium; format: cell-based; conditions: read-out: pIC50 LNCaP_Vancouver prostate cell (converted)
[5] = tested on: PC-3M-Luc-C6 prostate cells; assay: In vitro PC-3M-Luc-C6 prostate cell proliferation assay in lipid reduced medium; format: cell-based; conditions: 96 h, read-out: pIC50 PC-3M-Luc-C6 prostate cell (converted)
[6] = biological target: Fatty Acid Synthase Keto-reductase Domain (FASN KR) (Homo sapiens, UniProt P49327); assay: Fatty Acid Synthase keto-reductase domain (FASN KR) inhibition, NADPH oxidation at 340 nm
Sequence of Fatty Acid Synthase Keto-reductase Domain (FASN KR) (P49327 whole entry, the tested form may be a part): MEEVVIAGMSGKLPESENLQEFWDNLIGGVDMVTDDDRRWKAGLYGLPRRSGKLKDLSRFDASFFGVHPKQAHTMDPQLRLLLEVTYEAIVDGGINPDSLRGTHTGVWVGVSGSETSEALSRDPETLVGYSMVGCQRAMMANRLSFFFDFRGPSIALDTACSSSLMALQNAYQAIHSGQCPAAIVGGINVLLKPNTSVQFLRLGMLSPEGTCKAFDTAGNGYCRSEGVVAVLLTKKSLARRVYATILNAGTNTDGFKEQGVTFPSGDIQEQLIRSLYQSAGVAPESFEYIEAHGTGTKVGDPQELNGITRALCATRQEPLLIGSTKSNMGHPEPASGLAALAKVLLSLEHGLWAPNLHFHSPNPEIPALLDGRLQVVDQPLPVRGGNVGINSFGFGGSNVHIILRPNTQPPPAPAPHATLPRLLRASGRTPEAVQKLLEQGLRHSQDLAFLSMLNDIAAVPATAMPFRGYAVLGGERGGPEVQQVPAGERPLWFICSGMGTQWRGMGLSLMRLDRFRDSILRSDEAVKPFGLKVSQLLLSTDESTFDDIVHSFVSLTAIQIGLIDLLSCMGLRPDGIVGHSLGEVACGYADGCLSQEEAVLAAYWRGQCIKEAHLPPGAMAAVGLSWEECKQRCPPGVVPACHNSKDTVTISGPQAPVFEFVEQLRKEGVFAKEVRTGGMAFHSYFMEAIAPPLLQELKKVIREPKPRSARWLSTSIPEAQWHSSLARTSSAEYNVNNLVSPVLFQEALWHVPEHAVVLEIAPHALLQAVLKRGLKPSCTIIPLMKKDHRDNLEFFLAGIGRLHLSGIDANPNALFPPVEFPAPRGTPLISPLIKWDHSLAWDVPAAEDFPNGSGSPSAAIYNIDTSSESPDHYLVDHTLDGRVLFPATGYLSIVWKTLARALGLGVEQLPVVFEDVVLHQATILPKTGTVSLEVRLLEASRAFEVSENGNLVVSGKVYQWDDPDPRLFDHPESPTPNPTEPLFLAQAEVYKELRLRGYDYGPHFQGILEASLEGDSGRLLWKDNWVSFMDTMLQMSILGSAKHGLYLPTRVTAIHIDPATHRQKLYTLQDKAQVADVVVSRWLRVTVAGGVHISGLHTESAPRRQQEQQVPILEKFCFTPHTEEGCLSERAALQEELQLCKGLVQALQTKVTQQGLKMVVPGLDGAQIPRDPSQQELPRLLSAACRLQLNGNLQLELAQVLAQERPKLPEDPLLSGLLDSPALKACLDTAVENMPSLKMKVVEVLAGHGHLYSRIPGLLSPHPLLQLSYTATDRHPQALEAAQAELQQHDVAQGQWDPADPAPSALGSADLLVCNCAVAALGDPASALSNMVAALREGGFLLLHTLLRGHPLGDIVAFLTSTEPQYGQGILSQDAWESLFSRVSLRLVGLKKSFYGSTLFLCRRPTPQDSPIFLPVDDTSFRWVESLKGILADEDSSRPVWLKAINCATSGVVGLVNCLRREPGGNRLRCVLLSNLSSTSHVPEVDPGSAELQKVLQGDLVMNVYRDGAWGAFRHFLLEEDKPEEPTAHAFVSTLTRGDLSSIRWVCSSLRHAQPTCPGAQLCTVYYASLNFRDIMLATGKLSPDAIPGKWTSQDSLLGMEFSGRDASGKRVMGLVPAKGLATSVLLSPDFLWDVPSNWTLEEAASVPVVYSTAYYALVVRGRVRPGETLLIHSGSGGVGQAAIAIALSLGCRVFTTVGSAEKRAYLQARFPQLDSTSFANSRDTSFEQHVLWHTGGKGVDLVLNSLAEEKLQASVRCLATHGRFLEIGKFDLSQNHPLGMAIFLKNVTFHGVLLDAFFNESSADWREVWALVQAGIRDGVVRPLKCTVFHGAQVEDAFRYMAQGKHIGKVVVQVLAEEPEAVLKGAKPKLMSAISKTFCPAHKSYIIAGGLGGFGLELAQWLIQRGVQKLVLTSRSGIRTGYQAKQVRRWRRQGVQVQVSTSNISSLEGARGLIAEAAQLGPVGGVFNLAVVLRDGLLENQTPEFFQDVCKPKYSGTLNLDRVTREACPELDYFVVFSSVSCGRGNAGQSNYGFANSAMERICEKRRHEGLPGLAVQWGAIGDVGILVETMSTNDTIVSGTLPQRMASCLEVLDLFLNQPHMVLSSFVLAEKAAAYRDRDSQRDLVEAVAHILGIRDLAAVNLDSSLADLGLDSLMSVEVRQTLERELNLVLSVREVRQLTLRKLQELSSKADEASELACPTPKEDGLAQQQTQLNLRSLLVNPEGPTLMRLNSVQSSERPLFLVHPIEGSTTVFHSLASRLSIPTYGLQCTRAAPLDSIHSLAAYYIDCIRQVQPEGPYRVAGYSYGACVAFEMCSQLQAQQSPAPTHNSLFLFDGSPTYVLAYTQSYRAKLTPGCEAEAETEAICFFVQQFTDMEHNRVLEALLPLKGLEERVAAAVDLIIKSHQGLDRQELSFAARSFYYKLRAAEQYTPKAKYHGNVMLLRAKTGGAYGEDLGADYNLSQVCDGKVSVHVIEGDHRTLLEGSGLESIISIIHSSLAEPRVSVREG
Method: After 20 minutes incubation at room temperature the plate was measured again (T2).
The decrease in absorbance was calculated as (Absorbance before incubation T1)−(Absorbance following incubation T2).
A plot of Controlmin versus test compound concentration was fitted to a 4-parameter logistic curve using a non-linear least squares regression method.

T1 sequence (P49327 whole entry): as the sequence (P49327 whole entry, the tested form may be a part) above

Row | Compound | inhibition at 10 µM [1] [%] | IC50 [1] [µM] | IC50 (A2780 ovarian cells [2]) [µM] | IC50 (A2780 ovarian cells [3]) [µM] | IC50 [4] [µM] | IC50 [5] [µM] | IC50 [6] [µM]
1 | O=C(C1CC1)N1CC[C@@H](CN2C(=O)C3(CC3)N=C2c2ccc(-c3cccc4[nH]ncc34)s2)C1 [compound 427, 6-{[(3R)-1-(Cyclopropylcarbonyl)pyrrolidin-3-yl]methyl}-5-[5-(1H-indazol-4-yl)thiophen-2-yl]-4,6-diazaspiro[2.4]hept-4-en-7-one] | 91 | 0.417 | > 10 | 0.832 | 2.63 | 0.851 | 1.12
2 | O=C(C1CC1)N1CC[C@@H](CN2C(=O)C3(CC3)N=C2c2ccc(-c3ccc4c(c3)COCC4)cc2)C1 [compound 453, 6-{[(3R)-1-(Cyclopropylcarbonyl)pyrrolidin-3-yl]methyl}-5-[4-(3,4-dihydro-1H-2-benzopyran-7-yl)phenyl]-4,6-diazaspiro[2.4]hept-4-en-7-one] | 94 | 0.245 | > 10 | 2.14 | 2.95 | 1.62 | 1.12
3 | Cc1cc(-c2ccc3ccc(Cl)nc3c2)ccc1C1=NC2(CC2)C(=O)N1CC1CN(C(=O)C2(C)CC2)C1 [compound 594, 5-[4-(2-Chloroquinolin-7-yl)-2-methylphenyl]-6-({1-[(1-methylcyclopropyl)carbonyl]azetidin-3-yl}methyl)-4,6-diazaspiro[2.4]hept-4-en-7-one] | 102 | 0.245 | > 10 | 0.617 | 1.91 | ~0.589 | 1.07
4 | Cc1cc2cc(-c3ccc(C4=NC5(CC5)C(=O)N4CC4CN(C(=O)C5CC5)C4)c(C)c3)ccc2s1 [compound 391, 6-{[1-(Cyclopropylcarbonyl)azetidin-3-yl]methyl}-5-[2-methyl-4-(2-methyl-1-benzothiophen-5-yl)phenyl]-4,6-diazaspiro[2.4]hept-4-en-7-one] | 104 | 0.129 | > 10 | 1.17 | 1.7 | 0.724 | 0.389

These reach a lower IC50 [6]. Values come first.

Row | inhibition at 10 µM [1] [%] | IC50 [1] [µM] | IC50 (A2780 ovarian cells [2]) [µM] | IC50 (A2780 ovarian cells [3]) [µM] | IC50 [4] [µM] | IC50 [5] [µM] | IC50 [6] [µM] | Compound
5 | 105 | 0.0646 | > 10 | 0.138 | 0.603 | ~0.115 | 0.166 | Cc1cc(-c2ccc3cnn(C)c3c2)ccc1C1=NC2(CC2)C(=O)N1CC1CN(C(=O)C2(C)CC2)C1 [compound 335, 5-(2-methyl-4-(1-methyl-1H-indazol-6-yl)phenyl)-6-((1-(1-methylcyclopropanecarbonyl)azetidin-3-yl)methyl)-4,6-diazaspiro[2.4]hept-4-en-7-one]
6 | 100 | 0.0537 | > 10 | 0.631 | 1.29 | ~0.575 | 0.105 | Cc1cc2cc(-c3ccc(C4=NC5(CC5)C(=O)N4C[C@@H]4CCN(C(=O)C5CC5)C4)cc3)ccc2s1 [compound 295, (R)-6-((1-(cyclopropanecarbonyl)pyrrolidin-3-yl)methyl)-5-(4-(2-methylbenzo[b]thiophen-5-yl)phenyl)-4,6-diazaspiro[2.4]hept-4-en-7-one]
7 | 103 | 0.0437 | > 10 | 0.0724 | 0.457 | 0.0776 | 0.0891 | COc1cccc2ccc(-c3ccc(C4=NC5(CC5)C(=O)N4CC4CN(C(=O)C5(O)CC5)C4)c(F)c3)cc12 [compound 375, 5-(2-fluoro-4-(8-methoxynaphthalen-2-yl)phenyl)-6-((1-(1-hydroxycyclopropanecarbonyl)azetidin-3-yl)methyl)-4,6-diazaspiro[2.4]hept-4-en-7-one]
8 | 104 | 0.055 | > 10 | ~0.0447 | 0.288 | 0.0589 | 0.0692 | N#Cc1ccc2nc(-c3ccc(C4=NC5(CC5)C(=O)N4CC4CN(C(=O)C5CC5)C4)c(F)c3)sc2c1 [compound 268, 2-(4-(6-((1-(cyclopropanecarbonyl)azetidin-3-yl)methyl)-7-oxo-4,6-diazaspiro[2.4]hept-4-en-5-yl)-3-fluorophenyl)benzo[d]thiazole-6-carbonitrile]

Source: patent US10077261B2, “Imidazolin-5-one derivative useful as FASN inhibitors for the treatment of cancer” (Janssen Pharmaceutica NV, priority 2012, dated 2018)
